Assay results reported in patent US20090215713A1, “Use of atp for the manufacture of a medicament for the prevention and treatment of oxidative stress and related conditions” (priority 2004, published 2009).
“Also recorded” adds a separate entry of the source.

Legend:
[1] = system: IL-6; assay: LPS+PHA-induced IL-6 secretion in whole blood from healthy subjects (ELISA); type: cell-based, human; conditions: indicated ATP concentrations, 24 h
Protocol: FIG. 9 Effect of ATP on LPS+PHA-induced IL-6 secretion in whole blood from healthy subjects. The whole blood was exposed to 10 μg/ml LPS and 1 μg/ml PHA with indicated concentrations of ATP for 24 h. The IL-6 released into the supernatants was analyzed using the ELISA method. Results are expressed in percentage, 100% being the IL-6 release under stimulation by LPS+PHA without ATP. […] Data are expressed at the mean values; error bars represent SEM.
Blood was collected from 8 healthy subjects in heparin containing vacutainer tubes. All incubations were performed in duplicate. ATP was dissolved in RPMI 1640 culture medium, at a final concentration of 1-300 μM, and blood pre-incubated with ATP at 5% CO2 at 37 DC for 30 min. After stimulation with LPS en PHA (10 and 1 μg/ml final concentration, respectively), the plates were incubated in 5% CO2 at 37° C. for 24 h. Cell-free supernatant fluids were then collected by centrifugation (6000 rpm, 10 min at 4° C.) and stored at −20° C. until tested for presence of cytokines. All cytokines were quantified by means of PeliKine Compact human ELISA kits (CLB/Sanquin, The Netherlands), based on appropriate and validated sets of monoclonal antibodies.

[2] = system: TNF-α/IL-10 ratio; assay: TNF-α/IL-10 ratio in whole blood from patients with oxidative stress-related diseases; type: cell-based, human; conditions: for reduction in the TNF-α/IL-10 ratio: 300 μM ATP
Protocol: (§1) FIG. 15 Effect of ATP on the ratio of TNF-α/IL-10 secretion in whole blood from a patient with oxidative stress-related disease. […] In both experiments, TNF-α and IL-10 released into the supernatants was analyzed using the ELISA method. Results are expressed in percentage, 100% being the TNF-α/IL-10 ratio without ATP (control).
as §1, with “16” for “15”, “(control). Both in untreated and in LPS-PHA stimulated blood, the ratio of TNF-α/IL-10 release from whole blood was reduced by the addition of ATP.” for “(control).”
FIG. 17 Effect of ATP on the ratio of TNF-α/IL-10 secretion in whole blood from a patient with oxidative stress-related disease. […] TNF-α and IL-10 released into the supernatants was analyzed using the ELISA method. Results are expressed in percentage, 100% being the TNF-α/IL-10 ratio without ATP (control). The ratio of TNF-α/IL-10 release from whole blood was reduced by the addition of ATP.
This experiment was performed to test the effects of ATP ex vivo in whole blood collected from patients with oxidative stress-related diseases, both without and with LPS+PHA stimulation of cytokine production. Whole blood from 3 patients with different oxidative stress-related diseases was collected as described for experiment 2, and incubated for 24 hours at 5% CO2 and 37° C., with ATP added at a final concentration 300 μM, or no ATP (control). Cytokine production was measured as in Experiment 2. Results were expressed as the TNF-α/IL-10 ratio relative to the control condition (no ATP).

[3] = system: TNFα; assay: TNFα secretion in whole blood after γ-irradiation; type: cell-based; conditions: 300 μM ATP, 16 Gy, 3 and 5 h post-irradiation
Protocol: FIG. 18 Effect of ATP on cytokine secretion in whole blood after γ-irradiation. Blood was pre-incubated with 300 μM ATP or medium (control) for 30 minutes and then irradiated with γ-radiation (16 Gy).
(§2) Samples with 5 ml of blood were pre-incubated with 300 μM ATP or medium (control) for 30 minutes. Then, at t=0, each blood sample was irradiated with γ-radiation at a dose of 16 Gy. Preceding irradiation (baseline) and at 1 h, 3 h and 5 h post-irradiation, a sample was taken for analysis of intracellular GSH and GSH/GSSG ratios according to standard methods, as well as for cytokine analysis by the ELISA method.

[4] = system: GSH and GSH/GSSG ratios; assay: Intracellular GSH and GSH/GSSG ratios in whole blood after γ-irradiation; type: cell-based; conditions: 300 μM ATP, 16 Gy
Protocol: as §2

[5] = ATP infusions in a patient with rheumatoid arthritis; type: in vivo, human
Protocol: Patients with different diseases received infusions of 10-75 μg/kg·min over 8-24 h, at intervals of 1-4 weeks in different randomized clinical trials. In all cases, the first. infusion was given under clinical supervision, subsequent infusions were given in the setting of private homes. Preliminary results in small numbers of patients with persistent rheumatoid arthritis, chronic fatigue syndrome, and cancer in the pre-terminal stage, and lung cancer during curative radiotherapy are given below.
[…] […] DAS score had decreased from 5.80 to 3.09 and CRP had decreased from 43 to 6 mg/L.; all other blood values were normal. MD's conclusion: marked decease of disease activity.

[6] = Randomized ATP infusions in non-small-cell lung cancer patients, stage IIIB and IV; type: in vivo, human
Protocol: Patients with non-small-cell lung cancer, stage IIIB and IV, in the palliative treatment stage, were randomized to receive either ATP infusions (total of 10 infusions over 24 weeks) or no treatment. Outcome assessment (quality of life, blood values) was performed at regular intervals.

[7] = previous study, ATP infusion during 30 hrs; cited from earlier work
[8] = cited from earlier work
[9] = cited from earlier work; remark: listed apart in the source
[10] = after 10 weekly infusions, 10-15 μg/kg·min

## Nc1ncnc2c1ncn2[C@@H]1O[C@H](COP(=O)(O)OP(=O)(O)OP(=O)(O)O)[C@@H](O)[C@H]1O [ATP, Adenosine 5′-triphosphate]
[1]
  effect on LPS+PHA-induced IL-6 release: No effect; also recorded: not influenced
[2]; patient blood stimulated with LPS+PHA, depending on the patient
  reduction in the TNF-α/IL-10 ratio: 40-80%
[2]; patient blood without LPS+PHA
  reduction in the TNF-α/IL-10 ratio: 60-80%
[2]; patient blood, untreated and/or LPS+PHA-stimulated
  effect on ratio of TNF-α/IL-10 release: markedly reduced
[3]
  effect on irradiation-induced TNFα stimulation: completely blocked
[4]
  effect on irradiation-induced decrease in GSH and GSH/GSSG ratios: attenuation
[5]; after 10 infusions
  joint swelling and pain: markedly decreased
[5]; [10]
  CRP: 6 mg/L
  DAS score: 3.09
[5]; before ATP
  CRP: 43 mg/L
  DAS score: 5.80
[6]; 24-week study period
  plasma lactate dehydrogenase concentration: remained stable
  plasma triglyceride concentration: remained stable
[6]; human, in vivo
  decreased sexual interest, compared to the control group: normalization
  dizziness, compared to the control group: reduction
  dry mouth, compared to the control group: improvement
[7]
  life-threatening side effects: did not find any
[8]; phase I/II, 2 to 3 intravenous courses of 96 hours
  body weight: stabilisation
[8]; phase II, after 4 ATP courses
  average weight gain: 1.3 kg
[9]; Swennen et al. 2004
  effect on plasma levels of pro- or anti-inflammatory cytokines: neither an effect
[9]; regular infusions
  loss of weight and muscle mass compared to a control group: inhibited
